# From paper PMC12194779, “Synergistic Insecticidal Activity of Plant Volatile Compounds: Impact on Neurotransmission and Detoxification Enzymes in Sitophilus zeamais” (Insects, 2025)
# “And” between values parts separate entries of the source, which are not always exact repeats. Identical values can stand only once.
# System: Sitophilus zeamais
# Assay: not given
# Type: in vivo
# Conditions: topical, 24 h after exposure
# Experimental: (§1) The insects used in this study were Sitophilus zeamais Motschulsky (Coleoptera: Curculionidae), identified by the Instituto Colombiano Agropecuario (ICA) under report number R3823M0000425. […] The adult insects used in all the experiments were 6 to 10 days post-emergence.
# Groups of 10 insects, previously placed in Petri dishes, were immobilized by exposure to low temperatures (0 °C). An initial dose of 50.0 µg per adult was applied topically to the dorsal thorax of each insect using aliquots of 0.20 µL from 0.25 mg/µL solutions in n-hexane. […] All treatments were performed in two independent experiments, each with four replicates. Insect mortality was assessed after 24 h, and mortality percentages were calculated using Abbott’s correction formula (Equation (1)).
# (§2) Mixtures predicted by the RSM were prepared based on mole fractions. […] Four replicates were performed for each treatment and control across two independent experimental runs.
# (§3) Dose reduction indices (DRIs) were also calculated to estimate how much the dose of each compound in a synergistic combination could be reduced to achieve a 50% effect (Equation (4)). DRIs were interpreted as favorable when >1, neutral at 1, and unfavorable when <1.
Compound,Contact Toxicity LD90 (95% FL),Contact Toxicity LD50 (95% FL)
"CC(C)=CCC/C(C)=C/C=O [Compound C27, Citral]",32.68 (29.77–36.82) µg/Adult,–
"CCCCCCCCC(C)=O [Compound C35, 2-Decanone]",57.17 (52.97–63.12) µg/Adult,38.04 (35.29–40.84) µg/Adult
"CC1(C)C(=O)[C@]2(C)CC[C@H]1C2 [Compound C8, 1R-(−)-Fenchone]",48.33 (45.12–52.78) µg/Adult,34.65 (32.19–37.08) µg/Adult
"CCCCCCCCCC(C)=O [Compound C36, 2-Undecanone]",57.13 (53.43–62.83) µg/Adult,42.86 (40.60–45.30) µg/Adult
"CCCCCCCC(=O)CCC [Compound C34, 4-Undecanone]",53.95 (49.63–60.68) µg/Adult,37.05 (34.09–40.01) µg/Adult
"CCCCCCCC(C)=O [Compound C9, 2-Nonanone]",39.69 (38.01–42.15) µg/Adult,31.86 (30.27–33.17) µg/Adult
Isoeugenol [Compound C31],66.2 (57.28–80.01) µg/Adult,29.1 (24.40–34.21) µg/Adult
"C=CC(C)(O)CCC=C(C)C (centres unmarked) [Compound C28, Linalool]",36.23 (33.20–40.64) µg/Adult,21.87 (19.09–24.23) µg/Adult
"CC1C(=O)CC2(C(C)C)CC12 (stereo not drawn) [Compound C6, α, β-Thujone (70:10)]",44.67 (41.56–49.34) µg/Adult,32.04 (29.44–34.42) µg/Adult
"CC1=CC(=O)C(C(C)C)CC1 (centres unmarked) [Compound C22, Piperitone]",14.70 (13.25–16.96) µg/Adult,–
"CC(=O)OC/C=C(\C)CCC=C(C)C [Compound C37, Geranyl acetate]",126.06 (112.84–146.08) µg/Adult,73.00 (65.98–81.05) µg/Adult

# System: Sitophilus zeamais
# Assay: whole plant or invertebrate
# Conditions: Sitophilus zeamais, in Homo sapiens, 24 h, read-out: Fumigant Toxicity LC50 (95% FL)
# Experimental: as §1
# The treated disks were affixed to the inner surface of the screw cap of 22 mL glass vials. […] All treatments were performed in two independent experiments, each with five replicates.
# as §2
# as §3, with “<1. Values above the log DRI = 0 line indicate favorable dose reductions.(4) (IRD)i=CL50i(fax)i/(1−(fax)i)^1/mi/(D)i” for “<1.”
row,Compound,LC50
1,"CC1(C)C(=O)[C@]2(C)CC[C@H]1C2 [Compound C8, 1R-(−)-Fenchone]",10.6 µg/mL and 69.6 µM
2,"CCCCCCCC(C)=O [Compound C9, 2-Nonanone]",9.09 µg/mL and 63.9 µM
3,"CC1=CCC(=C(C)C)CC1 [Compound C24, Terpinolene]",52.1 µg/mL and 338 µM
4,"CC1C(=O)CC2(C(C)C)CC12 (stereo not drawn) [Compound C6, α, β-Thujone (70:10)]",4.34 µg/mL and 28.5 µM
5,"CC1=CC(=O)C(C(C)C)CC1 (centres unmarked) [Compound C22, Piperitone]",4.38 µg/mL and 28.8 µM

# Same assay, conditions: Sitophilus zeamais, in Homo sapiens, 24 h, read-out: Fumigant Toxicity LC90 (95% FL)
row,Compound,EC90
1,"CC1(C)C(=O)[C@]2(C)CC[C@H]1C2 [Compound C8, 1R-(−)-Fenchone]",17.1 µg/mL and 112 µM
2,"CCCCCCCC(C)=O [Compound C9, 2-Nonanone]",13.7 µg/mL and 96.5 µM
3,"C=C1CCC2CC1C2(C)C (stereo not drawn) [Compound C17, β-Pinene]",151 µg/mL
4,"CC1=CCC(=C(C)C)CC1 [Compound C24, Terpinolene]",88.8 µg/mL and 576 µM
5,"CC1C(=O)CC2(C(C)C)CC12 (stereo not drawn) [Compound C6, α, β-Thujone (70:10)]",6.81 µg/mL and 44.7 µM
6,"CC1=CC(=O)C(C(C)C)CC1 (centres unmarked) [Compound C22, Piperitone]",6.19 µg/mL and 40.7 µM

# Same assay, conditions: Sitophilus zeamais, read-out: LC50 values, fumigant activity (Figure 3)
row,Compound,LC50
1,"CCCCCCCCC(C)=O [Compound C35, 2-Decanone]",> 150 µg/mL
